Like-named read-outs stand apart in the source and are kept apart here.
What was measured:
Type in all cases: in vivo
[1] = tested on: chickweed (Stellaria media); experiment: Test C postemergence; conditions: Stellaria media, post-emergence
Text: (§1) Seeds or nutlets of plant species selected from bermudagrass (Cynodon dactylon), Surinam grass (Brachiaria decumbens), cocklebur (Xanthium strumarium), corn (Zea mays), crabgrass (Digitaria sanguinalis), woolly cupgrass (Eriochloa villosa), giant foxtail (Setaria faberii), goosegrass (Eleusine indica), johnsongrass (Sorghum halepense), kochia (Kochia scoparia), lambsquarters (Chenopodium album), morningglory (Ipomoea coccinea), eastern black nightshade (Solanum ptycanthum), yellow nutsedge (Cyperus esculentus), pigweed (Amaranthus retroflexus), common ragweed (Ambrosia elatior), soybean (Glycine max), common (oilseed) sunflower (Helianthus annuus), and velvetleaf (Abutilon theophrasti) were planted and treated preemergence with test chemicals formulated in a non-phytotoxic solvent mixture which included a surfactant.
(§2) At the same time, plants selected from these crop and weed species and also winter barley (Hordeum vulgare), blackgrass (Alopecurus myosuroides), canarygrass (Phalaris minor), chickweed (Stellaria media), downy brome (Bromus tectorum), green foxtail (Setaria viridis), Italian ryegrass (Lolium multiflorum), wheat (Triticum aestivum), wild oat (Avena fatua) and windgrass (Apera spica-venti) were treated with postemergence applications of some of the test chemicals formulated in the same manner. Plants ranged in height from 2 to 18 cm (1- to 4-leaf stage) for postemergence treatments. Plant species in the flooded paddy test consisted of rice (Oryza sativa), umbrella sedge (Cyperus difformis), duck salad (Heteranthera limosa) and barnyardgrass (Echinochloa crus-galli) grown to the 2-leaf stage for testing. Treated plants and controls were maintained in a greenhouse for 12 to 14 days, after which time all species were compared to controls and visually evaluated. Plant response ratings, summarized in Table C, are based on a scale of 0 to 100 where 0 is no effect and 100 is complete control. A dash (-) response means no test result.

[2] = tested on: Surinam grass (Brachiaria decumbens); experiment: Test C pre/postemergence; conditions: Urochloa decumbens; for pest or weed control at 125 g/ha: 125 g ai/ha; for pest or weed control at 31 g/ha: 31 g ai/ha; for pest or weed control at 62 g/ha: 62 g ai/ha; for pest or weed control at 250 g/ha: 250 g ai/ha
Text: as §1, §2

[3] = tested on: yellow nutsedge (Cyperus esculentus); experiment: Test C pre/postemergence; conditions: Cyperus; for pest or weed control at 31 g/ha: 31 g ai/ha; for pest or weed control at 62 g/ha: 62 g ai/ha; for pest or weed control at 125 g/ha: 125 g ai/ha; for pest or weed control at 250 g/ha: 250 g ai/ha
Text: as §1, §2

[4] = tested on: giant foxtail (Setaria faberii); experiment: Test C pre/postemergence; conditions: Setaria faberi; for pest or weed control at 125 g/ha: 125 g ai/ha; for pest or weed control at 31 g/ha: 31 g ai/ha; for pest or weed control at 62 g/ha: 62 g ai/ha; for pest or weed control at 250 g/ha: 250 g ai/ha
Text: as §1, §2

[5] = tested on: crabgrass (Digitaria sanguinalis); experiment: Test C pre/postemergence; conditions: Digitaria sanguinalis; for pest or weed control at 31 g/ha: 31 g ai/ha; for pest or weed control at 62 g/ha: 62 g ai/ha; for pest or weed control at 125 g/ha: 125 g ai/ha; for pest or weed control at 250 g/ha: 250 g ai/ha
Text: as §1, §2

[6] = post-emergence, Postemergence, scale 0 to 100 (0 no effect, 100 complete control), read-out: Surinam Grass plant response rating
[7] = pre-emergence, Preemergence, scale 0 to 100, 0 no effect, 100 complete control, read-out: Plant response rating, Surinam Grass
[8] = pre-emergence, Preemergence, scale 0 to 100, read-out: Plant response rating, Surinam Grass
[9] = post-emergence, Postemergence, scale 0 to 100 (0 no effect, 100 complete control), read-out: Nutsedge, Yellow plant response rating
[10] = pre-emergence, Preemergence, scale 0 to 100, 0 no effect, 100 complete control, read-out: Plant response rating, Nutsedge, Yellow
[11] = pre-emergence, Preemergence, scale 0 to 100, read-out: Plant response rating, Nutsedge, Yellow
[12] = post-emergence, Postemergence, scale 0 to 100 (0 no effect, 100 complete control), read-out: Foxtail, Giant plant response rating
[13] = pre-emergence, Preemergence, scale 0 to 100, 0 no effect, 100 complete control, read-out: Plant response rating, Foxtail, Giant
[14] = pre-emergence, Preemergence, scale 0 to 100, read-out: Plant response rating, Foxtail, Giant
[15] = post-emergence, Postemergence, scale 0 to 100 (0 no effect, 100 complete control), read-out: Crabgrass plant response rating
[16] = pre-emergence, Preemergence, scale 0 to 100, 0 no effect, 100 complete control, read-out: Plant response rating, Crabgrass
[17] = pre-emergence, Preemergence, scale 0 to 100, read-out: Plant response rating, Crabgrass

COC(=O)c1nc(C2CC2)nc(N)c1Cl [Compound 9, methyl 6-amino-5-chloro-2-cyclopropyl-4-pyrimidinecarboxylate]
pest or weed control at 31 g/ha ([1]; 31 g ai/ha, read-out: Plant response rating (scale of 0 to 100), Chickweed): 15% | pest or weed control at 62 g/ha ([1]; 62 g ai/ha, scale 0 to 100 (0 no effect, 100 complete control), read-out: Chickweed plant response rating): 85% | pest or weed control at 125 g/ha ([1]; 125 g ai/ha, scale 0 to 100, read-out: Plant response rating, Chickweed): 100% | pest or weed control at 250 g/ha ([1]; 250 g ai/ha, scale 0 to 100, read-out: Plant response rating, Chickweed): 100% | pest or weed control at 125 g/ha [2, 6]: 75% | pest or weed control at 31 g/ha ([2]; post-emergence, Postemergence, read-out: Plant response rating (scale of 0 to 100), Surinam Grass): 45% | pest or weed control at 62 g/ha [2, 6]: 65% | pest or weed control at 250 g/ha ([2]; post-emergence, Postemergence, scale 0 to 100, read-out: Plant response rating, Surinam Grass): 80% | pest or weed control at 31 g/ha [2, 7]: 95% | pest or weed control at 62 g/ha [2, 7]: 100% | pest or weed control at 125 g/ha [2, 8]: 100% | pest or weed control at 250 g/ha [2, 8]: 100% | pest or weed control at 31 g/ha ([3]; post-emergence, Postemergence, read-out: Plant response rating (scale of 0 to 100), Nutsedge, Yellow): 0% | pest or weed control at 62 g/ha [3, 9]: 0% | pest or weed control at 125 g/ha [3, 9]: 0% | pest or weed control at 250 g/ha ([3]; post-emergence, Postemergence, scale 0 to 100, read-out: Plant response rating, Nutsedge, Yellow): 0% | pest or weed control at 31 g/ha [3, 10]: 20% | pest or weed control at 62 g/ha [3, 10]: 100% | pest or weed control at 125 g/ha [3, 11]: 100% | pest or weed control at 250 g/ha [3, 11]: 100% | pest or weed control at 125 g/ha [4, 12]: 75% | pest or weed control at 31 g/ha ([4]; post-emergence, Postemergence, read-out: Plant response rating (scale of 0 to 100), Foxtail, Giant): 60% | pest or weed control at 62 g/ha [4, 12]: 65% | pest or weed control at 250 g/ha ([4]; post-emergence, Postemergence, scale 0 to 100, read-out: Plant response rating, Foxtail, Giant): 80% | pest or weed control at 31 g/ha [4, 13]: 0% | pest or weed control at 62 g/ha [4, 13]: 0% | pest or weed control at 125 g/ha [4, 14]: 75% | pest or weed control at 250 g/ha [4, 14]: 80% | pest or weed control at 31 g/ha ([5]; post-emergence, Postemergence, read-out: Plant response rating (scale of 0 to 100), Crabgrass): 60% | pest or weed control at 62 g/ha [5, 15]: 70% | pest or weed control at 125 g/ha [5, 15]: 75% | pest or weed control at 250 g/ha ([5]; post-emergence, Postemergence, scale 0 to 100, read-out: Plant response rating, Crabgrass): 80% | pest or weed control at 31 g/ha [5, 16]: 20% | pest or weed control at 62 g/ha [5, 16]: 95% | pest or weed control at 125 g/ha [5, 17]: 95% | pest or weed control at 250 g/ha [5, 17]: 100%
